Results as given in PubChem BioAssay (NCI).
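48-hour exposure; five concentrations; linearly interpolated endpoints. Definition used: TGI = concentration required for complete inhibition of growth.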

How the values were obtained:
Experiment in all cases: NCI-60 cell line screen, 48 h
NCI-H460 lung = test system: NCI-H460 lung
SNB-75 CNS = test system: SNB-75 CNS
OVCAR-5 ovarian = test system: OVCAR-5 ovarian
SF-539 CNS = test system: SF-539 CNS
SN12C renal = test system: SN12C renal
U251 CNS = test system: U251 CNS
SR leukemia = test system: SR leukemia
K-562 leukemia = test system: K-562 leukemia
HOP-92 NSCLC = test system: HOP-92 NSCLC
UACC-257 melanoma = test system: UACC-257 melanoma
SK-MEL-2 melanoma = test system: SK-MEL-2 melanoma
SK-MEL-28 melanoma = test system: SK-MEL-28 melanoma
CAKI-1 renal = test system: CAKI-1 renal
SF-295 CNS = test system: SF-295 CNS
UACC-62 melanoma = test system: UACC-62 melanoma

Structure (SMILES)	TGI (NCI-H460 lung)	TGI (SNB-75 CNS)	TGI (OVCAR-5 ovarian)	TGI (SF-539 CNS)	TGI (SN12C renal)	TGI (U251 CNS)	TGI (SR leukemia)	TGI (K-562 leukemia)	TGI (HOP-92 NSCLC)	TGI (UACC-257 melanoma)	TGI (SK-MEL-2 melanoma)	TGI (SK-MEL-28 melanoma)	TGI (CAKI-1 renal)	TGI (SF-295 CNS)	TGI (UACC-62 melanoma)
c1ccc2c(c1)nc1n2CNC1	> 100 µM	> 100 µM	> 100 µM	> 100 µM	> 100 µM	> 100 µM	> 100 µM	> 100 µM	> 100 µM	> 100 µM	> 100 µM	> 100 µM	> 100 µM	> 100 µM	> 100 µM
COC(=O)C(COC(C)=O)NC(=O)/C=C/c1ccc(O)c(OC(C)=O)c1 (configuration not stated)	> 100 µM	> 100 µM	> 100 µM	53.9 µM	> 100 µM	> 100 µM	> 100 µM	> 100 µM	> 100 µM	> 100 µM	> 100 µM	> 100 µM	> 100 µM	> 100 µM	> 100 µM
c1ccc(CSP234N5CCN2CCN3CCN4CC5)c(CSP234N5CCN2CCN3CCN4CC5)c1	> 100 µM	> 100 µM	> 100 µM	> 100 µM	> 100 µM	> 100 µM	> 100 µM	–	> 100 µM	> 100 µM	> 100 µM	> 100 µM	> 100 µM	> 100 µM	> 100 µM
CC(=O)OCCOCn1cnc2c(Cl)nc(Cl)nc21	35 µM	51.7 µM	36.9 µM	–	33.9 µM	29.2 µM	16.1 µM	5.43 µM	3.37 µM	36.8 µM	55.6 µM	–	0.832 µM	–	30.1 µM
O=c1c2cc(S(=O)(=O)O)ccc2nc(COc2ccc(Oc3ccc(Cl)cc3Cl)cc2)n1-c1ccc(Cl)cc1Oc1c(Cl)cccc1Cl	46.5 µM	–	60.6 µM	33.5 µM	99.4 µM	40.5 µM	96.7 µM	> 100 µM	47.1 µM	86.6 µM	35.6 µM	–	> 100 µM	56.6 µM	48.9 µM
CCOP(=O)(O)C1C(CO)OC(n2ccc(=O)[nH]c2=O)C1O (configuration not stated)	> 100 µM	> 100 µM	–	> 100 µM	> 100 µM	–	> 100 µM	> 100 µM	> 100 µM	> 100 µM	> 100 µM	> 100 µM	> 100 µM	> 100 µM	> 100 µM
Cc1cc(=O)n2nc(CN3CCCCC3)sc2n1	> 100 µM	> 100 µM	> 100 µM	> 100 µM	> 100 µM	> 100 µM	> 100 µM	> 100 µM	> 100 µM	> 100 µM	> 100 µM	> 100 µM	> 100 µM	> 100 µM	> 100 µM
Cc1ccc(NC(=O)c2cccc(OP(=O)(O)Nc3ccc(C)cc3)c2)cc1	> 100 µM	> 100 µM	> 100 µM	> 100 µM	> 100 µM	> 100 µM	> 100 µM	> 100 µM	> 100 µM	> 100 µM	> 100 µM	> 100 µM	> 100 µM	> 100 µM	> 100 µM
NC(CCC(=O)O)C(=O)N1CCN(c2nc(N3CCCC3)c3nc(Cl)c(NCc4ccccc4)nc3n2)CC1 (configuration not stated)	24.9 µM	25.3 µM	33.5 µM	28.5 µM	30.7 µM	30.2 µM	17.5 µM	35.7 µM	32.2 µM	28.5 µM	31.5 µM	27.7 µM	39.6 µM	26.7 µM	24.7 µM
C=C(CC[C@@H](C)[C@H]1CC[C@@]2(C)C3=C(CC[C@]12C)[C@@]1(C)CC[C@H](O)[C@@H](C)C1CC3)C(C)C (some centres not stated)	2.09 µM	2.49 µM	2.67 µM	2.71 µM	2.72 µM	3.11 µM	2.71 µM	1.18 µM	2.54 µM	2.7 µM	2.93 µM	2.51 µM	2.26 µM	2.27 µM	2.61 µM
COC(=O)C1C(=O)C=CN([C@H](C)c2ccccc2)[C@@H]1Cc1ccc(OC)c(OCc2ccccc2)c1I (some centres not stated)	31.7 µM	–	92.7 µM	36.4 µM	28.8 µM	39.7 µM	> 100 µM	> 100 µM	17.4 µM	39.3 µM	40 µM	> 100 µM	> 100 µM	35.5 µM	25.7 µM
CNC(=O)N1CN(c2ccccc2)C2(CCN(CCCC3(c4ccc(F)cc4)OCCO3)CC2)C1=O	> 100 µM	> 100 µM	> 100 µM	> 100 µM	> 100 µM	> 100 µM	> 100 µM	> 100 µM	> 100 µM	–	> 100 µM	> 100 µM	> 100 µM	> 100 µM	> 100 µM
CC1=CC(=O)N(n2c(Cc3ccccc3)n[nH]c2=O)C1=O	> 100 µM	–	> 100 µM	> 100 µM	> 100 µM	> 100 µM	> 100 µM	> 100 µM	> 100 µM	> 100 µM	> 100 µM	–	> 100 µM	> 100 µM	> 100 µM
CC(=NNC(=S)Nc1ccc(C)cc1)c1cccc(C(C)=NNC(=S)Nc2ccc(C)cc2)n1	> 100 µM	85 µM	> 100 µM	28.1 µM	> 100 µM	97 µM	27.1 µM	66.3 µM	> 100 µM	69.7 µM	> 100 µM	> 100 µM	40.3 µM	71.7 µM	> 100 µM
CNc1nc2n(CCO)c(-c3ccccc3)c(-c3ccccc3)nc-2c(=O)n1	> 50 µM	> 50 µM	> 50 µM	> 50 µM	> 50 µM	> 50 µM	> 50 µM	> 50 µM	> 50 µM	> 50 µM	> 50 µM	> 50 µM	> 50 µM	> 50 µM	> 50 µM
O=[N+]([O-])c1cccc2nc3ccccc3c(NCCC[N+]3([O-])CCOCC3)c12	0.462 µM	0.683 µM	1.5 µM	1.3 µM	0.993 µM	0.964 µM	> 40.8 µM	> 100 µM	0.29 µM	1.29 µM	0.375 µM	0.984 µM	12.1 µM	1.38 µM	0.319 µM

Structure (SMILES)	TGI (NCI-H460 lung)	TGI (SNB-75 CNS)	TGI (OVCAR-5 ovarian)	TGI (SF-539 CNS)	TGI (SN12C renal)	TGI (U251 CNS)	TGI (SR leukemia)	TGI (K-562 leukemia)	TGI (HOP-92 NSCLC)	TGI (UACC-257 melanoma)	TGI (SK-MEL-2 melanoma)	TGI (SK-MEL-28 melanoma)	TGI (CAKI-1 renal)	TGI (SF-295 CNS)	TGI (UACC-62 melanoma)
COC(=O)C1=C(C(=O)OC)c2cc(OC)ccc2C(C(=S)N(C)C)S1 (configuration not stated)	> 100 µM	> 100 µM	> 100 µM	–	> 100 µM	> 100 µM	> 100 µM	> 100 µM	> 100 µM	> 100 µM	> 100 µM	> 100 µM	> 100 µM	> 100 µM	> 100 µM
CCOC(=O)C1(C(=O)OCC)C[C@H](C)[C@](C)(O)C1	> 100 µM	> 100 µM	> 100 µM	> 100 µM	> 100 µM	> 100 µM	> 100 µM	> 100 µM	> 100 µM	> 100 µM	> 100 µM	> 100 µM	> 100 µM	> 100 µM	> 100 µM
CC(C)(C)c1ccc(-c2nc3ccc(Cl)cc3c(=O)o2)cc1	> 100 µM	81.6 µM	80.9 µM	35.8 µM	> 100 µM	31.3 µM	47.9 µM	67.8 µM	46.8 µM	65.1 µM	44.2 µM	57.2 µM	63.9 µM	58.1 µM	56.5 µM
Cc1cccc2c(N)c3cccc(C(=O)NCC[N+](C)(C)Cc4c([N+](=O)[O-])ncn4C)c3nc12	–	> 100 µM	> 100 µM	36.9 µM	> 100 µM	> 100 µM	> 100 µM	> 100 µM	> 100 µM	> 100 µM	> 100 µM	> 100 µM	23.9 µM	> 100 µM	> 100 µM
CCOP(=O)(CN1CCNCCNCC1)OCC	> 100 µM	> 100 µM	> 100 µM	> 100 µM	> 100 µM	> 100 µM	> 100 µM	> 100 µM	> 100 µM	> 100 µM	> 100 µM	> 100 µM	> 100 µM	> 100 µM	> 100 µM
CC(C)Oc1ccc2c(c1)OCC1Cc3ccccc3OC21 (configuration not stated)	–	–	> 100 µM	> 100 µM	> 100 µM	> 100 µM	> 100 µM	> 100 µM	> 100 µM	> 100 µM	> 100 µM	–	> 100 µM	> 100 µM	> 100 µM
Cc1[nH]n(C2=NCCN2)c(=O)c1Cc1ccccc1	> 100 µM	–	> 100 µM	> 100 µM	–	> 100 µM	> 100 µM	> 100 µM	> 100 µM	> 100 µM	> 100 µM	–	> 100 µM	> 100 µM	> 100 µM
CC12CCC([C@H](C(O)C3CCCCC3)C1=O)C2(C)C (some centres not stated)	> 100 µM	> 100 µM	> 100 µM	> 100 µM	> 100 µM	> 100 µM	> 100 µM	> 100 µM	> 100 µM	> 100 µM	> 100 µM	–	> 100 µM	> 100 µM	> 100 µM
CN1C2CCC1CC(CCNC(c1ccccc1)c1ccccc1)C2 (configuration not stated)	> 100 µM	> 100 µM	> 100 µM	35.7 µM	> 100 µM	> 100 µM	40.3 µM	27.4 µM	43.2 µM	31.8 µM	31.4 µM	34.2 µM	> 100 µM	49 µM	–
O=C(O)Cc1cc(O)c(CC(=O)O)cc1O	> 100 µM	–	> 100 µM	–	> 100 µM	> 100 µM	> 100 µM	> 100 µM	> 100 µM	> 100 µM	> 100 µM	> 100 µM	> 100 µM	> 100 µM	> 100 µM
CC(C)=CC(=O)C[C@H]1C(=O)O[C@@H]2C[C@H]3C(C)=CC(=O)[C@@H](O)[C@]3(C)[C@H]3[C@@]4(O)OC[C@]32[C@@H]1[C@@H](C)[C@H]4O	0.743 µM	0.103 µM	–	–	–	0.137 µM	> 100 µM	1.3 µM	0.328 µM	0.608 µM	0.274 µM	0.172 µM	> 50.2 µM	0.152 µM	0.443 µM
CCOC(=O)C(Cc1cn(S(=O)(=O)c2ccccc2)c2ccccc12)(NC(C)=O)C(=O)OCC	> 100 µM	33.3 µM	> 100 µM	> 100 µM	–	> 100 µM	69.8 µM	> 100 µM	67.1 µM	88.2 µM	80.3 µM	> 100 µM	> 100 µM	> 100 µM	> 100 µM
Cc1ccccc1N=Nc1ccc(N/N=C2/CCCNC2=O)c(C)c1	> 100 µM	–	> 100 µM	–	> 100 µM	> 100 µM	> 100 µM	> 100 µM	> 100 µM	> 100 µM	> 100 µM	> 100 µM	> 100 µM	> 100 µM	> 100 µM
Cc1ccc(-c2c3nc(c(-c4ccc(C)cc4)c4ccc([nH]4)c(-c4ccc(OCC5COC(C)(C)O5)cc4)c4nc(c(-c5ccc(C)cc5)c5ccc2[nH]5)C=C4)C=C3)cc1 (configuration not stated)	> 31.6 µM	> 31.6 µM	> 31.6 µM	> 31.6 µM	> 31.6 µM	> 31.6 µM	> 31.6 µM	–	> 100 µM	> 31.6 µM	> 31.6 µM	> 31.6 µM	> 100 µM	> 31.6 µM	–
O=C1N[C@@H](c2c[nH]c3cc(Br)ccc23)C(=O)N[C@H]1c1c[nH]c2cc(Br)ccc12	> 100 µM	90.1 µM	> 100 µM	> 100 µM	> 100 µM	60.1 µM	> 100 µM	> 100 µM	> 100 µM	> 100 µM	> 100 µM	> 100 µM	–	> 100 µM	> 100 µM
